Laboratory results as given in patent US12712060B2, “Multi-modal crypto/bio-human-machine interface” (The Regents of the University of California, priority 2022, dated 2026).

Experiments:
[1] = touch-based APAP TH-sensor (DPV) measurement on index fingertip after APAP medication intake; format: in vivo, human; settings: 60 min after intake of 650 mg APAP, APAP-free threshold 3.7 nA
Protocol: Adopted was a similar study framework to evaluate the in-situ detection capability of APAP TH-sensor. For this context, the measured signal is defined as the voltammetric current peak height ([…]), and the threshold for determining the APAP-free state was measured as 3.7 nA (three trials). FIGS. 3D and 3E show the corresponding voltammograms measured by the APAP TH-sensor, 10 min before and 60 min after the intake of an APAP-based medication (containing 650 mg APAP). The comparison of the two voltammograms and the corresponding extracted current peaks (IP, pre-intake ~0 nA vs. IP, post-intake ~15 nA) validates that the developed TH-sensor is capable of detecting the presence of circulating APAP molecules via the devised touch-based modality.

[2] = human, in vivo, 60 min
Description: Embodiments specifically employ the ethanol TH-sensor to assess whether the sensor is capable of differentiating between two states: no alcohol-intake vs. recent intake of an alcoholic beverage. For this context, defined were the measured signal S as the slope of the sensor's amperometric response, and the threshold as Sfree, avg+3×Sfree, SD, where Sfree, avg and Sfree, SD are the average and standard deviation of the signals obtained from the alcohol-free subject (three trials). […] Then performed were touch-based TH-sensor measurements before (t=−20 min) and after (t=+60 min) the intake of an alcoholic beverage (~100 mL, 12.5% alcohol).
Two human subjects participated in the characterization of each type of TH-sensor. For each trial, the subjects were instructed to wash their index fingertips with deionized (DI) water before testing and to rinse their mouth with cold water immediately after the beverage/medication intake (to avoid contamination from residue). Touch-based measurements were performed using corresponding TH-sensors before and at intermittent time points after the beverage/medication intake. The water loss from the fingertip was monitored by an evaporimeter (VapoMeter, Delfin Technologies). The fingertip temperature was monitored by a thermocouple (HT-9815, RISEPRO). […] BAC was estimated using an alcohol breathalyzer (S80, BACtrack Inc.). […]

[3] = cited from earlier work
[4] = patient, 900 mg lithium carbonate; ~0-1 h pre-intake vs ~1-2 h post-intake
Protocol: Further validated was the performance of the developed TOH-ISE in an in-situ lithium adherence monitoring study. To this end, a subject prescribed lithium-based medication was recruited. […] In a control experiment, touch-based sensing and salivary lithium analysis were also performed on three healthy subjects, where circulating lithium is expected to be negligible.
In-situ TOH-ISE characterization. […] For each touch-based entry, the subjects were instructed to wash their index or middle fingertips with DI water before testing. The acquired potentiometric readouts were processed using the same method as the ex-situ experiments to extract the sensing signal. For saliva collection, the subjects were instructed to rinse their mouth with cold water before collection. The samples were collected via direct salivation using a Saliva Collection Aid (Salimetrics, CA, USA). The salivary lithium was quantified using a colorimetric lithium assay kit (Abcam ab235613, MA, USA) and Nanodrop One (Thermo Fisher, MA, USA).

## CC(=O)Nc1ccc(O)cc1 [APAP, acetaminophen]
[1]
  APAP TH-sensor voltammetric current peak height IP, post-intake: ~ 15 nA

## CCO [ethanol]
[2]
  ethanol TH-sensor signal S (slope of amperometric response): 21.5 nA/min

## O=C([O-])[O-].[Li+].[Li+] [lithium, lithium carbonate]
[3]; saliva, ~twice the corresponding serum concentrations
  clinically relevant range in non-invasively retrievable biofluid (e.g., saliva): 0.5 to 3 mM
[3]; severe adverse effects if overdosed
  therapeutic window: 0.6 to 1.2 mM
[4]
  TOH-ISE touch-based sensing signal, post versus pre drug intake: larger signal
